For test [1], the target named is T1, Cytosolic phospholipase A2 (Homo sapiens) (UniProt P47712).
T1 sequence (whole entry): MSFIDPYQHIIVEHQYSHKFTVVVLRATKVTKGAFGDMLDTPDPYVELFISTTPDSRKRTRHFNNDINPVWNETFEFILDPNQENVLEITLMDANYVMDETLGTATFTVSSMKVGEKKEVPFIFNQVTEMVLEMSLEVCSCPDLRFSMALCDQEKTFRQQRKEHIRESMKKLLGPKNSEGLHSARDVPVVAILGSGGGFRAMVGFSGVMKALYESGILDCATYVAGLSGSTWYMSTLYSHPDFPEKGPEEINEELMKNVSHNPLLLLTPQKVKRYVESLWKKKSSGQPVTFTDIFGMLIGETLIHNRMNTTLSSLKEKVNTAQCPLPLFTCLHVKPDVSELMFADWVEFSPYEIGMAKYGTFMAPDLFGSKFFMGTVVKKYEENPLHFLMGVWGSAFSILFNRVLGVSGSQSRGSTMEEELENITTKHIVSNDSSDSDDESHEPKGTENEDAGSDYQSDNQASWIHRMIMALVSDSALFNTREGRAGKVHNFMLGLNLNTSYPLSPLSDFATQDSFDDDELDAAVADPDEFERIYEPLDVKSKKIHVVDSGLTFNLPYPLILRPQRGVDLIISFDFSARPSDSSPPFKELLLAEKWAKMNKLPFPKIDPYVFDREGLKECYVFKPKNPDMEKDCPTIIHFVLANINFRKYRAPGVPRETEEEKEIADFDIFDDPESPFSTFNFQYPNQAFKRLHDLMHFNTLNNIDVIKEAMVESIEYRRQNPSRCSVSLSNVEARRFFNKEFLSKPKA
The experiment in a line: Inhibitory activity against human Group IVA Phospholipase A2 (GIVA PLA2).

Test [2] concerns the target T1, Cytosolic phospholipase A2 (Homo sapiens). The experiment in a line: Inhibitory activity against human Group IVA Phospholipase A2 (GIVA PLA2); Inactive.
Test [3] has the same target. The experiment in a line: Inhibitory activity against human Group IVA Phospholipase A2 (GIVA PLA2), at 0.02 mole fraction.

What is called inhibition is the drop in the measured response relative to a control, in per cent. A higher inhibition goes with a response far below the control.

Calls of active or inactive are those of the source. No cut-off for these calls is given here.

In test [1], `CCCCCCCCCCC(=O)C(=O)N[C@@H](CCCC)CCC(=O)O` yielded an XI50 of 0.009.

As to `CCCCCCCC/C=C\CCCCCCCCNC(=O)C(=O)CCCCCCCCCCCCCC`, the IA result in test [2] is “inactive”.

On to `CCCCCCCCCCCCCCC(=O)C(=O)NCCCC(=O)O`, for which the XI50 in test [1] worked out at 0.017.

In the case of `CCCCCCCCCCCCCCC(=O)C(=O)NCCCCCC`, the inhibition in test [3] is 22%.

With `CCCCCCCC/C=C\CCCCCCCCNC(=O)C(=O)CCCCCC`, the IA entry in test [2] was “inactive”.

As to `CCCCCCC(=O)C(=O)NCCCC(=O)O`, in test [2], the IA result was “inactive”.

Compound `CCCCCCCCCCC(=O)C(=O)N[C@H](CCCC)CCC(=O)O` displayed an XI50 in test [1] of 0.068.

In the case of `CCCCCCCCCCCCCC(=O)C(N)=O`, the IA result in test [2] is “inactive”.

Values taken from ChEMBL document CHEMBL1135491, “Novel 2-oxoamide inhibitors of human group IVA phospholipase A(2)” (J Med Chem, 2002).
